Format in all cases: physicochemical
Data set [1] is described as follows: Thermodynamic stability among crystalline forms.
Data set [2] is described as follows: Total volatile content by thermogravimetric analysis (TGA). Conditions: TA Instruments Hi-Res TGA 2950 thermogravimetric analyzer (FIG. 7). On the procedure: Accordingly, in a second aspect of the present invention there is provided the compound of formula (I) form VI, having a total volatile content of not more than 0.3% by weight (w/w) as determined by a TA Instruments Hi-Res TGA 2950 thermogravimetric analyzer (FIG. 7).
Differential scanning calorimetry (DSC) was performed on a TA Instruments DSC 2920 Differential Scanning Calorimetor equipped with a DSC auto sampler. Samples of 1 to 3 mg were crimped in standard aluminum pans with holes and heated from 25° C. to 250° C. at a rate of 10° C./minute under nitrogen purge. The percentage of total weight loss of the drug substance was determined on a TA Instruments Hi-Res TGA 2950 thermogravimetric analyzer (TGA) with a nitrogen purge.

Data set [3] is described as follows: Gravimetric water vapor sorption (moisture sorption isotherm). As to the method: Moisture adsorption/desorption studies were conducted on a VTI vacuum microbalance at 25° C. after drying the sample at 60° C. under vacuum. Moisture adsorption was monitored under vacuum from 0 to 95% relative humidity and desorption was monitored from 95% down to 5% relative humidity. The criteria for equilibrium at a given relative humidity was less than 3 μg of weight change in 18 minutes.

Data set [4] is described as follows: Stability samples stored at elevated temperature/relative humidity, examined for crystal form. The settings on record: 80° C./50% RH, 60° C./75% RH, 60° C./50% RH and 40° C./75% RH, sealed conditions, 2 months.

Take `CC(C)Nc1nc2cc(Cl)c(Cl)cc2n1[C@H]1O[C@@H](CO)[C@H](O)[C@@H]1O` [Form VI, 5,6-dichloro-2-(isopropylamino)-1-(β-L-ribofuranosyl)-1H-benzimidazole]: the “thermodynamic stability relative to other forms” value in data set [1] is “most thermodynamically stable form”. Besides, the total volatile content result in data set [2] is listed as “not more than 0.3 % by weight (w/w)”. Further, the hygroscopicity result in data set [3] is “essentially non-hygroscopic”. The water absorbed in data set [3] (equilibrated up to 95% relative humidity at ambient temperature (FIG. 8)) turned out to be 0.3%.
Take `CC(C)Nc1nc2cc(Cl)c(Cl)cc2n1[C@H]1O[C@@H](CO)[C@H](O)[C@@H]1O` [ethanolate, 5,6-dichloro-2-(isopropylamino)-1-(β-L-ribofuranosyl)-1H-benzimidazole]: the “solid form stability on storage (conversion of crystal form)” value in data set [4] was “partially or completely converted to Form VI”.

The values above are taken from patent publication US6482939B1, “Form vi 5,6-dichloro-2-(isopropylamino)-1-(β-l-ribofuranosyl)-1h-bezimimidazole” (SmithKline Beecham Corporation, priority 1998, dated 2002).
